We go through one molecule from patent US8883841B2, “Oncogenic ras-specific cytotoxic compound and methods of use thereof” (The Board of Regents of the University of Texas System, priority 2005, dated 2014).

The test system of one data set is H23. The data set is described as follows: Cell viability, H23 lung cancer cells. In kind it is cell-based, human. Conditions: H23, Lung.
A short description of data set [1]: In vivo toxicity assay in tumor-bearing nude mice.
A further data set relates to Ovca429. The data set is described as follows: Cell viability, Ovca429 ovary cancer cells. In kind it is cell-based.

Where only a bound is given, the exact number is not on record here.

For `O=Cc1cn(Cc2ccc(Cl)cc2)c2ccccc12` [Oncrasin K001, 1H-Indole-3-carboxaldehyde, 1-[(4-chlorophenyl)methyl]-(9CI)], the “IC50 (−LogM)” value with H23 is reported as >4.5 −LogM; in the data set with Ovca429, 4.5 −LogM; in the data set on H460 cells (H460, Lung), 6.6 −LogM. In data set [1] (2 days after the last treatment), the “serum ALT, AST, and creatinine levels” value is reported as “within the normal range”. The “histopathologic examination of organs” value in data set [1] (lung, heart, stomach, small intestine, liver, spleen, pancreas, kidney) is recorded as “no significant lesions”. For the same molecule, the blood cell counts entry in data set [1] (red blood cells, white blood cells, platelets) is reported as “all in the normal ranges”. Moreover, the body weights result in data set [1] (vs solvent) is “No difference”. Also, the “concentration that effectively kills H460 cells” value in the data set on H460 cells (K-ras mutant lung cancer cells) turned out to be 1 µM. The “IC50 in H460 cells” value with H460 cells (Table 1, value is the negative log10 of mol/L) is given as 6.6. For the same molecule, the “effect on H460 cells” value in the data set with H460 cells (lung cancer cell line) is on record as “highly effective”. In addition, in the data set on H460 cells (read-out: IC50, H460 cells, K-Ras Q61H), the IC50 was 250 nM.

For orientation: IC50 means the concentration that inhibits the measured activity by half.
